From PubChem BioAssay AID330 (DTP/NCI, 2004)
Several values for one entry are separate records, joined by “and”; a condition that tells them apart may be missing. Equal values may be shown once. Toxic doses and inconclusive results are not listed. How the source made its calls: active means survival T/C of 150% or more; inactive means T/C below 125% in these data.

System: P388 leukemia ip, CD2F1 mice, survival T/C
Assay: NCI In Vivo Anticancer Drug Screen. Data for tumor model P388 Leukemia (intraperitoneal) in CD2F1 (CDF1) mice
Settings: endpoint: median survival time, higher = longer survival
Method in brief: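 Mice carrying the transplanted tumor received test compound or vehicle. Survival was recorded in each group, and the value is the treated-group measurement divided by that of the vehicle-treated control group.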

[1] = dose: 50.0 mg/kg/injection, schedule: Q01DX005 (ip), vehicle: Klucel (hydroxypropylcellulose) (HPC)
[2] = dose: 60.0 mg/kg/injection, schedule: Q01DX005 (ip), vehicle: saline with Tween-80
[3] = dose: 12.5 mg/kg/injection, schedule: Q01DX009 (ip), vehicle: Klucel (hydroxypropylcellulose) (HPC)
[4] = dose: 25.0 mg/kg/injection, schedule: Q01DX009 (ip), vehicle: Klucel (hydroxypropylcellulose) (HPC)
[5] = dose: 50.0 mg/kg/injection, schedule: Q01DX009 (ip), vehicle: Klucel (hydroxypropylcellulose) (HPC)
[6] = dose: 100.0 mg/kg/injection, schedule: Q01DX009 (ip), vehicle: Klucel (hydroxypropylcellulose) (HPC)
[7] = dose: 50.0 mg/kg/injection, schedule: Q04DX003 (ip), vehicle: saline with Tween-80
[8] = dose: 50.0 mg/kg/injection, schedule: Q01DX005 (ip), vehicle: saline with Tween-80
[9] = dose: 100.0 mg/kg/injection, schedule: Q01DX005 (ip), vehicle: saline with Tween-80
[10] = dose: 200.0 mg/kg/injection, schedule: Q01DX005 (ip), vehicle: saline with Tween-80

Measured: T/C

C=C1CCC2C(OC(=O)C2(COC(C)=O)OC(C)=O)C2C(=C)C(OC(C)=O)CC12 (configuration not stated)
inactive: dose: 11.25 mg/kg/injection, schedule: Q01DX005 (ip), vehicle: Klucel (hydroxypropylcellulose) (HPC) 100 % of control | dose: 22.5 mg/kg/injection, schedule: Q01DX005 (ip), vehicle: Klucel (hydroxypropylcellulose) (HPC) 97 % of control | dose: 45.0 mg/kg/injection, schedule: Q01DX005 (ip), vehicle: Klucel (hydroxypropylcellulose) (HPC) 103 % of control | dose: 90.0 mg/kg/injection, schedule: Q01DX005 (ip), vehicle: Klucel (hydroxypropylcellulose) (HPC) 104 % of control | dose: 180.0 mg/kg/injection, schedule: Q01DX005 (ip), vehicle: Klucel (hydroxypropylcellulose) (HPC) 99 % of control

Cc1cccc(C)c1-n1c(C)nc2[nH]cc(C)c2c1=N
inactive: dose: 12.5 mg/kg/injection, schedule: Q01DX005 (ip), vehicle: Klucel (hydroxypropylcellulose) (HPC) 99 % of control | dose: 25.0 mg/kg/injection, schedule: Q01DX005 (ip), vehicle: Klucel (hydroxypropylcellulose) (HPC) 97 % of control | [1] 100 % of control and 97 % of control

COC1CCC(CO)O1 (configuration not stated)
inactive: dose: 50.0 mg/kg/injection, schedule: Q01DX009 (ip), vehicle: suspension in saline 100 % of control | dose: 100.0 mg/kg/injection, schedule: Q01DX009 (ip), vehicle: suspension in saline 108 % of control | dose: 200.0 mg/kg/injection, schedule: Q01DX009 (ip), vehicle: suspension in saline 102 % of control

COC(=O)c1cccc2c(N)c(N)cc(C(=O)OC)c12
inactive: [2] 100 % of control | dose: 120.0 mg/kg/injection, schedule: Q01DX005 (ip), vehicle: saline with Tween-80 104 % of control | dose: 240.0 mg/kg/injection, schedule: Q01DX005 (ip), vehicle: saline with Tween-80 106 % of control

NNC(=O)C1CCN1C(c1ccccc1)c1ccccc1 (configuration not stated)
inactive: [3] 106 % of control | [4] 102 % of control | [5] 102 % of control | [6] 95 % of control

CS(C)=NC(=Nc1ccccc1)c1ccccc1
inactive: [7] 101 % of control | dose: 100.0 mg/kg/injection, schedule: Q04DX003 (ip), vehicle: saline with Tween-80 104 % of control

CNc1nc2c(s1)c1c(O)c3c(O)c(C)c4c(c32)C(=O)C(C)(O/C=C/C(OC)C(C)C(OC(C)=O)C(C)C(O)C(C)C(O)C(C)/C=C/C=C(/C)C(=O)N1)O4 (configuration not stated)
inactive: [4] 98 % of control | [5] 100 % of control | [6] 106 % of control | dose: 200.0 mg/kg/injection, schedule: Q01DX009 (ip), vehicle: Klucel (hydroxypropylcellulose) (HPC) 100 % of control

COc1cc2c(cc1O)-c1oncc1CCC2
inactive: dose: 100.0 mg/kg/injection, schedule: Q04DX002 (ip), vehicle: saline 94 % of control | dose: 200.0 mg/kg/injection, schedule: Q04DX002 (ip), vehicle: saline 98 % of control | dose: 400.0 mg/kg/injection, schedule: Q04DX002 (ip), vehicle: saline 95 % of control

N=c1nc(N)nc2c3ccccc3nnn12
inactive: dose: 15.0 mg/kg/injection, schedule: Q01DX005 (ip), vehicle: saline with Tween-80 109 % of control | dose: 30.0 mg/kg/injection, schedule: Q01DX005 (ip), vehicle: saline with Tween-80 109 % of control | [2] 106 % of control and 109 % of control

O=C1CC2NC(=O)C(CCCCN1)NC2=O (configuration not stated)
inactive: dose: 1.5 mg/kg/injection, schedule: Q01DX009 (ip), vehicle: Klucel (hydroxypropylcellulose) (HPC) 100 % of control | dose: 3.0 mg/kg/injection, schedule: Q01DX009 (ip), vehicle: Klucel (hydroxypropylcellulose) (HPC) 99 % of control | dose: 6.0 mg/kg/injection, schedule: Q01DX009 (ip), vehicle: Klucel (hydroxypropylcellulose) (HPC) 97 % of control | dose: 12.0 mg/kg/injection, schedule: Q01DX009 (ip), vehicle: Klucel (hydroxypropylcellulose) (HPC) 109 % of control

Nc1cc(-c2ccccc2)nn1-c1nnc(-c2ccccc2)c(-c2ccccc2)n1
inactive: [8] 95 % of control | [9] 100 % of control | [10] 95 % of control

COc1ccc(CC(=O)C(=O)O)cc1OCc1ccccc1
inactive: [7] 96 % of control | dose: 200.0 mg/kg/injection, schedule: Q04DX003 (ip), vehicle: saline with Tween-80 101 % of control | dose: 400.0 mg/kg/injection, schedule: Q04DX003 (ip), vehicle: saline with Tween-80 99 % of control

CCOP(=O)(CS(=O)(=O)CCC1(C)NC(=O)NC1=O)OCC (configuration not stated)
inactive: dose: 60.0 mg/kg/injection, schedule: Q01DX005 (ip), vehicle: saline 101 % of control | dose: 120.0 mg/kg/injection, schedule: Q01DX005 (ip), vehicle: saline 103 % of control | dose: 240.0 mg/kg/injection, schedule: Q01DX005 (ip), vehicle: saline 103 % of control

CCCCCCCCCCCCCCCCCC(=O)N[C@@H](Cc1ccc(N(CCCl)CCCl)cc1)C(=O)NCCCCCC
inactive: dose: 2.12 mg/kg/injection, schedule: Q01DX009 (ip), vehicle: saline 109 % of control | dose: 2.12 mg/kg/injection, schedule: Q03HX008 (ip), vehicle: saline 90 % of control | dose: 4.24 mg/kg/injection, schedule: Q01DX009 (ip), vehicle: saline 113 % of control | dose: 4.24 mg/kg/injection, schedule: Q03HX008 (ip), vehicle: saline 100 % of control | dose: 8.48 mg/kg/injection, schedule: Q03HX008 (ip), vehicle: saline 100 % of control | dose: 16.95 mg/kg/injection, schedule: Q03HX008 (ip), vehicle: saline 100 % of control | dose: 33.9 mg/kg/injection, schedule: Q03HX008 (ip), vehicle: saline 90 % of control | dose: 67.8 mg/kg/injection, schedule: Q03HX008 (ip), vehicle: saline 90 % of control

CCOC(=O)c1nc(Cl)nc(Cl)c1I
inactive: dose: 3.13 mg/kg/injection, schedule: Q01DX009 (ip), vehicle: distilled water + Tween-80 99 % of control | dose: 6.25 mg/kg/injection, schedule: Q01DX009 (ip), vehicle: distilled water + Tween-80 110 % of control | dose: 12.5 mg/kg/injection, schedule: Q01DX009 (ip), vehicle: distilled water + Tween-80 112 % of control and 123 % of control | dose: 25.0 mg/kg/injection, schedule: Q01DX009 (ip), vehicle: distilled water + Tween-80 101 % of control and 112 % of control | dose: 50.0 mg/kg/injection, schedule: Q01DX009 (ip), vehicle: distilled water + Tween-80 90 % of control

CN(C)c1ccc(/C=C/c2c(F)cnc3ccccc23)cc1
inactive: [3] 114 % of control | [4] 101 % of control | [5] 104 % of control

O=C1CN(CCN2CC(=O)N(CN3CCOCC3)C(=O)C2)CC(=O)N1CN1CCOCC1
inactive: dose: 12.5 mg/kg/injection, schedule: Q01DX005 (ip), vehicle: water 108 % of control and 111 % of control and 119 % of control

CCN(CC)CCSSCCN(CC)CC.[Cl][Mn][Cl]
inactive: [1] 114 % of control | dose: 100.0 mg/kg/injection, schedule: Q01DX005 (ip), vehicle: Klucel (hydroxypropylcellulose) (HPC) 117 % of control

COc1cccc2c1C(=O)c1c(O)c3c(c(O)c1C2=O)C[C@@](O)(C(C)=O)CC3OC1CC(NC(=O)CCCN)C(O)C(C)O1 (some centres not stated)
inactive: dose: 6.25 mg/kg/injection, schedule: Q04DX003 (ip), vehicle: saline 98 % of control | dose: 12.5 mg/kg/injection, schedule: Q04DX003 (ip), vehicle: saline 97 % of control | dose: 25.0 mg/kg/injection, schedule: Q04DX003 (ip), vehicle: saline 100 % of control | dose: 50.0 mg/kg/injection, schedule: Q04DX003 (ip), vehicle: saline 104 % of control

O=C1CC2(CCc3ccccc32)C(=O)N1CCN1CCOCC1 (configuration not stated)
inactive: [8] 100 % of control | [9] 95 % of control | [10] 105 % of control

CC1=CC2OC3CC(OC(=O)/C=C/C=C/C(O)C(C)O)C(C)(C2(C)CC1)C31CO1 (configuration not stated)
inactive: dose: 0.16 mg/kg/injection, schedule: Q01DX009 (ip), vehicle: saline + alcohol 109 % of control | dose: 0.31 mg/kg/injection, schedule: Q01DX009 (ip), vehicle: saline + alcohol 113 % of control | dose: 0.62 mg/kg/injection, schedule: Q01DX009 (ip), vehicle: saline + alcohol 109 % of control | dose: 1.25 mg/kg/injection, schedule: Q01DX009 (ip), vehicle: saline + alcohol 109 % of control | dose: 2.5 mg/kg/injection, schedule: Q01DX009 (ip), vehicle: saline + alcohol 120 % of control | dose: 5.0 mg/kg/injection, schedule: Q01DX009 (ip), vehicle: saline + alcohol 123 % of control

O=[N+]([O-])c1nc(Br)n[nH]1
inactive: dose: 100.0 mg/kg/injection, schedule: Q04DX002 (ip), vehicle: water 107 % of control | dose: 200.0 mg/kg/injection, schedule: Q04DX002 (ip), vehicle: water 106 % of control
